This note sets out measurements from PMC6017250, “Novel Inhibitor Discovery of Staphylococcus aureus Sortase B and the Mechanism Confirmation via Molecular Modeling” (Molecules : A Journal of Synthetic Chemistry and Natural …, 2018).

As a reminder, the Kd is the constant that tells how readily two partners part at equilibrium.

Each structure is given as a SMILES string.

Holding throughout (format): binding
In assay [1] the target is T1, Sortase B (SrtBΔ30) (Staphylococcus aureus, UniProt Q2FZE3, N116A).
T1 construct: gene srtB; SrtBΔ30
T1 sequence (Q2FZE3 31-244 N116A): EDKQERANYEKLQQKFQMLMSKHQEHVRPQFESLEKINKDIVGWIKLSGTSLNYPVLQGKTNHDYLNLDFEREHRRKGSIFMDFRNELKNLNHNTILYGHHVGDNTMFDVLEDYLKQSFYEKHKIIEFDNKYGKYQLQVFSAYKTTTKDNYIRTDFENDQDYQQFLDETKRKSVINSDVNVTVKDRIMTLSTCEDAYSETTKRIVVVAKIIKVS
Briefly: fluorescence spectroscopy quenching (association constant KA). From the text: (§1) fluorescence spectroscopy quenching (association constant KA) on Sortase B (SrtBΔ30) | the binding constants (KA) of the ligand with the mutant proteins were lower

Assay [2] concerns the target T2, Sortase B (SrtBΔ30) (Staphylococcus aureus, UniProt Q2FZE3, R115A).
T2 construct: gene srtB; SrtBΔ30
T2 sequence (Q2FZE3 31-244 R115A): T1 sequence (Q2FZE3 31-244 N116A)
The assay is described as above.
From the text: as §1

Assay [3] has as its target T3, Sortase B (SrtBΔ30) (Staphylococcus aureus, UniProt Q2FZE3, I182A).
T3 construct: gene srtB; SrtBΔ30
T3 sequence (Q2FZE3 31-244 I182A): T1 sequence (Q2FZE3 31-244 N116A)
The assay is described as above.
From the text: as §1

Assay [4] deals with T4, Sortase B (SrtBΔ30, WT) (Staphylococcus aureus, UniProt Q2FZE3).
T4 construct: gene srtB; SrtBΔ30
Briefly: fluorescence spectroscopy quenching (association constant KA); also FRET peptide-cleavage inhibition of the purified enzyme, IC50 […].

Consider `c1c2c(cc3c1OCO3)-c1cc3ccc4c(c3c[n+]1CC2)OCO4` [coptisine], for which the Kd in assay [1] was 10.9 µM; in assay [2] it was 12 µM; in assay [3], 12.8 µM; in assay [4], 7.35 µM.
